{"source": "paper PMC6078987", "about": "“Molecular insights into antibiotic resistance - how a binding protein traps albicidin” (Nature Communications, 2018)", "key": {"Staphylococcus aureus": {"system": "Staphylococcus aureus", "parameters": "method as in PMID 17074789, PMID 25504839", "settings": "cited from earlier work"}, "AlbAS": {"target": "T1, AlbAS (Klebsiella oxytoca, UniProt Q8KRS7)", "T1 sequence (Q8KRS7 1-221)": "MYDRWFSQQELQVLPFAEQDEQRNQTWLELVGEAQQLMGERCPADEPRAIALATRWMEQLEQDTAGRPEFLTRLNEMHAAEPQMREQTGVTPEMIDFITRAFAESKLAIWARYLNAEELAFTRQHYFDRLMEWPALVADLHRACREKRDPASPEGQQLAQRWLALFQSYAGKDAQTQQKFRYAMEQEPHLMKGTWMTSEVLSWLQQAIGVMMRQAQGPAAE", "assay": "1H-15N HSQC NMR binding assay", "settings": "15N-labeled AlbAS, 1.5-fold excess of ligand", "procedure": "For binding studies with albicidin and its derivatives, each ligand was dissolved in 100% d6-DMSO and added to ^15N-labeled AlbAS or ^2H, ^15N-labeled AlbAL in 50 mM sodium hydrogen phosphate (pH 6.8), 150 mM NaCl buffer (usually 0.24 mM AlbAS or AlbAL in 85% buffer, 5% d6-DMSO, and 10% D2O) yielding a 1.5-fold excess of the ligand. After incubation for 20 min at room temperature in the dark, the sample was centrifuged at 20 000 × g for 3 min and the supernatant was transferred to a 5 mm NMR tube. The AlbAS blank sample (Supplementary Figure 14) was measured in 100% buffer without addition of ligands and DMSO. Spectra were recorded on a Bruker Avance III 700 MHz NMR spectrometer (Bruker BioSpin, Rheinstetten, Germany) with a TXI probe head. Standard Bruker pulse sequences were used. 2D ^1H-^15N HSQC spectra were recorded at 298 K with acquisition times of 90 and 22 ms for the ^1H and ^15N dimension, respectively. The experiments were accumulated with ≥16 scans depending on protein sample concentration. 2D ^1H-^15N TROSY spectra were accumulated with 256 scans and acquisition times of 90 and 22 ms for the ^1H and ^15N dimension, respectively. Several AlbAS–albicidin samples were measured with the same result and a representative spectrum is given for the figures in the main manuscript and the SI. NMR experiments with AlbAS and albicidin analogs were conducted once with accumulation of ≥16 scans depending on protein concentration. For alignment of HSQC and TROSY spectra, the TROSY spectrum was corrected by 1/2 ^1JNH in both dimensions. […]"}, "[1]": {"system": "Pseudomonas aeruginosa DSM 117", "parameters": "method as in PMID 17074789, PMID 25504839", "settings": "cited from earlier work"}, "AlbAL": {"target": "AlbAL (Klebsiella oxytoca, UniProt A0A9P0U153)", "sequence (A0A9P0U153 entry or part of it)": "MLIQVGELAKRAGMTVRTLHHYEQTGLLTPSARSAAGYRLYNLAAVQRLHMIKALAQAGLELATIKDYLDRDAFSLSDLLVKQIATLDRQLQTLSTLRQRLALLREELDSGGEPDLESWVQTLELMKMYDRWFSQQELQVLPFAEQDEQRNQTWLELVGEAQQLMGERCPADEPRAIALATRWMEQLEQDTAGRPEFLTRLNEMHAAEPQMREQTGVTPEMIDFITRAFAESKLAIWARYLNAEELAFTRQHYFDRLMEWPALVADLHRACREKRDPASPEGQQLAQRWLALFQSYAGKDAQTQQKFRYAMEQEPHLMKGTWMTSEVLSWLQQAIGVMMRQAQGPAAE", "assay": "CD-detected thermal unfolding of AlbAL", "assay_type": "binding", "settings": "1.5-fold ligand, 20 µM protein; AlbAL alone 71 °C", "procedure": "For determination of the melting temperature and information on protein-ligand stability, CD measurements were performed on a J-815 CD spectrometer (Jasco, Groß-Umstadt, Germany). Protein samples (2.0 mM for AlbAS and 0.2 mM for AlbAL) were saturated with 1.5-fold albicidin and diluted to a protein concentration of 20 μM in order to ensure a final DMSO content of only 0.05% for AlbAS and 0.5% for AlbAL. A volume of 250 μL of the reaction mixture was transferred into a quartz cuvette with 1 mm path length. Six far-UV spectra were accumulated in a wavelength range of 195–300 nm (203–300 nm for AlbAL) at three different temperatures (10, 21, and 90 °C) with a scanning speed of 50 nm s^−1. For evaluation of the spectra the measured buffer blank (50 mM sodium hydrogen phosphate and 100 mM NaCl, pH 6.8) was subtracted from the averaged spectra. The temperature curves were recorded from 10–90 °C in 0.5 °C min^−1 steps while monitoring the ellipticity at 215 nm (218 nm for ALbAL). […] The melting temperatures of AlbAS, AlbAS–albicidin, AlbAS–compound 5, AlbAS–compound 7, AlbAL, and AlbAL–albicidin were determined by nonlinear regression of the measured data using Eq. (1). […] The Tm was thus determined by fitting the second transition representing the stabilized domain/species. […]"}, "AlbA": {"target": "AlbA", "parameters": "method as in PMID 9493391", "settings": "read-out: previously reported Kd; cited from earlier work"}, "P. aeruginosa": {"system": "P. aeruginosa", "assay": "MIC assay, clinical isolates", "assay_type": "cell-based", "settings": "Pseudomonas aeruginosa", "procedure": "(§1) The MIC assay was performed by Antiinfectives Intelligence GmbH (Rheinbach, Germany) using internationally standardized protocols and employing clinical isolates of K. oxytoca, K. pneumoniae, R. ornithologica, P. aeruginosa, A. baumannii and E. cloacae."}, "Enterobacter cloacae": {"system": "Enterobacter cloacae", "assay": "MIC assay, clinical isolates", "assay_type": "cell-based", "procedure": "as §1"}, "Acinetobacter baumanii": {"system": "Acinetobacter baumanii", "assay": "MIC assay, clinical isolates", "assay_type": "cell-based", "settings": "Acinetobacter baumannii", "procedure": "as §1"}, "K. oxytoca": {"system": "K. oxytoca", "assay": "MIC assay, clinical isolates", "assay_type": "cell-based", "settings": "Klebsiella oxytoca; four K. oxytoca strains", "procedure": "as §1"}, "R. ornithinolytica": {"system": "R. ornithinolytica", "assay": "MIC assay, clinical isolates", "assay_type": "cell-based", "procedure": "as §1"}, "E. coli DH5α": {"system": "E. coli DH5α", "assay": "Agar diffusion assay", "assay_type": "cell-based", "procedure": "To verify the neutralizing ability of AlbAS, AlbAL, AlbASM, AlbASCTD, or AlbASNTD against different compounds, agar diffusion assays with the respective compounds were performed. An overnight culture of E. coli DH5α was diluted to an OD600 of 0.05 with 0.75% LB-agar. The protein-albicidin reaction mixture consisted of a 1:1 mixture of 40 μM albicidin (or derivatives) with 40 μM protein (either AlbAS or its variants AlbAL, AlbASM, AlbASNTD, and AlbASCTD). The mixture was incubated for 20 min at room temperature in the dark. Reaction mixtures of 30 μL were transferred in triplicates of 2 mm holes on the inoculated agar plate. The plates were evaluated concerning growth-inhibition zone after incubation for 18 h at 37 °C."}}, "note": "“Also recorded” adds a separate entry of the source.", "data": [{"smiles": "COc1c(NC(=O)c2ccc(NC(=O)c3ccc(NC(=O)[C@H](CC#N)NC(=O)c4ccc(NC(=O)/C(C)=C/c5ccc(O)cc5)cc4)cc3)c(OC)c2O)ccc(C(=O)O)c1O", "note": "[albicidin]", "values": [{"measurement": "MIC", "setting": "Staphylococcus aureus", "result": 4.0, "unit": "µg/mL"}, {"measurement": "binding to AlbAS by HSQC signal pattern (in words)", "setting": "AlbAS", "result": "strong ligand binding in the nM–pM range"}, {"measurement": "MIC", "setting": "[1]", "result": 1.0, "unit": "µg/mL"}, {"measurement": "melting temperature Tm of AlbAL upon ligand binding", "setting": "AlbAL", "result": 74, "unit": "°C"}, {"measurement": "Kd", "setting": "AlbA", "result": 64, "unit": "nM"}, {"measurement": "MIC", "setting": "P. aeruginosa", "result": "≥ 64", "unit": "µg/mL"}, {"measurement": "MIC", "setting": "Enterobacter cloacae", "result": "≥ 64", "unit": "µg/mL"}, {"measurement": "MIC", "setting": "Acinetobacter baumanii", "result": "≥ 64", "unit": "µg/mL"}, {"measurement": "MIC", "setting": "K. oxytoca", "result": "≥ 64", "unit": "µg/mL"}, {"measurement": "MIC", "setting": "R. ornithinolytica", "result": "≥ 64", "unit": "µg/mL"}, {"measurement": "neutralization of antibacterial activity by AlbAL", "setting": "E. coli DH5α; 40 µM compound pre-incubated with 40 µM AlbAL", "result": "albicidin-neutralizing effect"}, {"measurement": "neutralization of antibacterial activity by AlbAS", "setting": "E. coli DH5α; 40 µM compound pre-incubated with 40 µM AlbAS", "result": "albicidin-neutralizing effect"}, {"measurement": "neutralization of antibacterial activity by AlbASCTD", "setting": "E. coli DH5α; 40 µM compound with 40 µM AlbASCTD", "result": "failed to suppress the antibacterial effects; also recorded: not able to neutralize albicidin"}, {"measurement": "neutralization of antibacterial activity by AlbASM (N75A, R181A, Q205A)", "setting": "E. coli DH5α; 40 µM compound with 40 µM AlbASM", "result": "not capable of efficiently suppressing the antibacterial activity"}, {"measurement": "neutralization of antibacterial activity by AlbASNTD", "setting": "E. coli DH5α; 40 µM compound with 40 µM AlbASNTD", "result": "failed to suppress the antibacterial effects; also recorded: not able to neutralize albicidin"}]}]}
